In BindingDB's records for patent US20250313563 (The Broad Institute, 2025):
Where “and” joins values, the source holds several entries; their conditions need not be identical. Equal entries are not always repeated.

How the values were obtained:
[1] = target: Glycogen synthase kinase-3 beta (Homo sapiens, UniProt P49841); test: TR-FRET Assay
Method in brief: (§1)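 Enzyme and test compound were first incubated together for 30 minutes in assay buffer. The kinase reaction followed and was stopped with EDTA. The pSer641 signal was read by time-resolved FRET.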

[2] = target: Glycogen synthase kinase-3 alpha (Homo sapiens, UniProt P49840); test: TR-FRET Assay
Sequence of Glycogen synthase kinase-3 alpha (P49840 whole entry): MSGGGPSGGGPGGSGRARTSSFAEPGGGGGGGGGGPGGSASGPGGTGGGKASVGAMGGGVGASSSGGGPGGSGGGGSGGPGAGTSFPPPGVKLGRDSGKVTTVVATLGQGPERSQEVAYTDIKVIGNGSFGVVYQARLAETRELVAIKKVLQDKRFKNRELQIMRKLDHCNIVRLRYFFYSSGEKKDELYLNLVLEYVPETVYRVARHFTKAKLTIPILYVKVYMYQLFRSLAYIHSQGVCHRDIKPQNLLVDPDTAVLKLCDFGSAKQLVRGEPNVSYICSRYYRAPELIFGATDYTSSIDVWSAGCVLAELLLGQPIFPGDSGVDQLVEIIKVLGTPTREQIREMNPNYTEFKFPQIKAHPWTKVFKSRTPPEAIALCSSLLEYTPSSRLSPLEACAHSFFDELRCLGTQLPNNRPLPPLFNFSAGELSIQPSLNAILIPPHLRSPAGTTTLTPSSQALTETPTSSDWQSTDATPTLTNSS
Method in brief: as §1

Sequence of Glycogen synthase kinase-3 beta (P49841 whole entry): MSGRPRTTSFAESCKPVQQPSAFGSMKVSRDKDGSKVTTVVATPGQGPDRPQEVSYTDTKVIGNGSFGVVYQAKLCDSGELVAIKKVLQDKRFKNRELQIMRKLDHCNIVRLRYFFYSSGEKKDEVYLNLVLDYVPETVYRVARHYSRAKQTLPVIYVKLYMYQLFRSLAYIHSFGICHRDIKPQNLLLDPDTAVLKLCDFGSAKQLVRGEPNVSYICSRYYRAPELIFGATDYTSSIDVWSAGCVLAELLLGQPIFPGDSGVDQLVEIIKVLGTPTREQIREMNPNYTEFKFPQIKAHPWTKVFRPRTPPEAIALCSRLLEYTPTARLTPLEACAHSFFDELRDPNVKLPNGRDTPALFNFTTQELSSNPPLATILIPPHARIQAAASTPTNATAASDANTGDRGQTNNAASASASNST

| Compound | IC50 [1] | IC50 [2] |
| --- | --- | --- |
| CCN(c1cccnc1)c1cccc([C@]2(CC)C3=CN=NC3NC3=C2C(=O)CC(C)(C)C3)c1 (stereo partly specified) [US20250313563, Compound 917089] | 1000 to 5000 nM | 100 to 1000 nM |
| CC1(C)CC(=O)C2=C(C1)NC1=C(CN=N1)[C@]21COC2(CCC2)C1 [US20250313563, Compound 917128] | 100 to 1000 nM | 100 to 1000 nM |
| CC1(C)CC(=O)C2=C(C1)NC1=C(CN=N1)[C@@]21COC2(CCC2)C1 [US20250313563, Compound 917129] | 100 to 1000 nM | 100 to 1000 nM |
| CCC1(c2cccc(N(C)C(=O)c3ccn(C)n3)c2)C2=CN=NC2NC2=C1C(=O)CC(C)(C)C2 (stereo unspecified) [US20250313563, Compound 917130] | 100 to 1000 nM | < 100 nM |
| CCCS(=O)(=O)c1cccc(C2(CC)C3=CN=NC3NC3=C2C(=O)CC(C)(C)C3)c1 (stereo unspecified) [US20250313563, Compound 917131] | < 100 nM | < 100 nM |
| CCC1(c2cccc(-c3cc(C)ncc3F)c2)C2=CN=NC2NC2=C1C(=O)CC(C)(C)C2 (stereo unspecified) [US20250313563, Compound 917132] | < 100 nM | < 100 nM |
| CC1(C)CC2=C(C(=O)C1F)[C@]1(CC[C@H](C(F)(F)F)CC1)C1=C(N=NC1)N2 (stereo partly specified) [US20250313563, Compound 917133] | < 100 nM | < 100 nM |
| CC1(C)CC2=C(C(=O)C1F)[C@]1(CC[C@@H](C(F)(F)F)CC1)C1=CN=NC1N2 (stereo partly specified) [US20250313563, Compound 917134] | 100 to 1000 nM | < 100 nM |
| CC1(C)CC(=O)C2=C(NC3=C(CN=N3)[C@]23CC[C@@H](C(F)(F)F)CC3)C1F (stereo partly specified) [US20250313563, Compound 917135] | 100 to 1000 nM | < 100 nM |
| CC1(C)CC(=O)C2=C(NC3=C(CN=N3)[C@]23CC[C@H](C(F)(F)F)CC3)C1F (stereo partly specified) [US20250313563, Compound 917136] | 100 to 1000 nM | < 100 nM |
| CC1(C)CC(=O)C2=C(C1)NC1N=NC=C1C21CCCN(S(=O)(=O)C2CC2)CC1 (stereo unspecified) [US20250313563, Compound 917137] | < 100 nM | < 100 nM |
| Cn1ccc(S(=O)(=O)N2CCCC3(CC2)C2=CN=NC2NC2=C3C(=O)CC(C)(C)C2)n1 (stereo unspecified) [US20250313563, Compound 917138] | < 100 nM | < 100 nM |
| CC1(C)CC(=O)C2=C(C1)NC1=C(CN=N1)C21CN(S(=O)(=O)C2CCCC2)C1 [US20250313563, Compound 917139] | < 100 nM and 100 to 1000 nM | < 100 nM and 100 to 1000 nM |
| COc1cccc(S(=O)(=O)N2CCCC3(CC2)C2=CN=NC2NC2=C3C(=O)CC(C)(C)C2)c1 (stereo unspecified) [US20250313563, Compound 917140] | 100 to 1000 nM | < 100 nM |
| COc1ccc(S(=O)(=O)N2CCCC3(CC2)C2=CN=NC2NC2=C3C(=O)CC(C)(C)C2)cc1 (stereo unspecified) [US20250313563, Compound 917141] | 100 to 1000 nM | < 100 nM |
| COc1ccccc1S(=O)(=O)N1CCCC2(CC1)C1=CN=NC1NC1=C2C(=O)CC(C)(C)C1 (stereo unspecified) [US20250313563, Compound 917142] | 100 to 1000 nM | < 100 nM |
| COc1ccc(S(=O)(=O)N2CCC3(CC2)C2=C(N=NC2)NC2=C3C(=O)CC(C)(C)C2)cc1 [US20250313563, Compound 917143] | < 100 nM | < 100 nM |
| CC1(C)CC(=O)C2=C(C1)NC1=C(CN=N1)C21CN(S(=O)(=O)c2ccc(F)cc2)C1 [US20250313563, Compound 917144] | < 100 nM | < 100 nM |
| CC1(C)CC(=O)C2=C(C1)NC1N=NC=C1C21CCCN(c2ccncn2)CC1 (stereo unspecified) [US20250313563, Compound 917145] | 1000 to 5000 nM | 1000 to 5000 nM |
| CCC1(c2cccc(N(C)c3ccnc(F)c3)c2)C2=CN=NC2NC2=C1C(=O)CC(C)(C)C2 (stereo unspecified) [US20250313563, Compound 917146] | < 100 nM | < 100 nM |
| CCc1cc(N(C)c2cccc(C3(CC)C4=CN=NC4NC4=C3C(=O)CC(C)(C)C4)c2)ccn1 (stereo unspecified) [US20250313563, Compound 917147] | 100 to 1000 nM | < 100 nM |
| CCC1(c2cccc(N3CCc4ccncc4C3)c2)C2=CN=NC2NC2=C1C(=O)CC(C)(C)C2 (stereo unspecified) [US20250313563, Compound 917148] | > 5000 nM | 1000 to 5000 nM |
| CCC1(c2cccc(N(C)c3ccnc(C)c3)c2)C2=CN=NC2NC2=C1C(=O)CC(C)(C)C2 (stereo unspecified) [US20250313563, Compound 917149] | 1000 to 5000 nM | 100 to 1000 nM |
| CCC1(c2cccc(N(C)c3ccc(F)nc3)c2)C2=CN=NC2NC2=C1C(=O)CC(C)(C)C2 (stereo unspecified) [US20250313563, Compound 917152] | 100 to 1000 nM | < 100 nM |
| CC[C@]1(c2cccc(C(F)(F)F)c2)C2=C(N=NC2)NC2=C1C(=O)NC2 [US20250313563, Compound 917157] | > 5000 nM | > 5000 nM |
| CC[C@@]1(c2cccc(C(F)(F)F)c2)C2=C(N=NC2)NC2=C1C(=O)NC2 [US20250313563, Compound 917158] | 1000 to 5000 nM | 100 to 1000 nM |
| CCC1(c2cccc(C(F)(F)F)c2)C2=C(N=NC2)NC2=C1C(=O)N(Cc1ccccc1)C2 (stereo unspecified) [US20250313563, Compound 917159] | 100 to 1000 nM | < 100 nM |

| Compound | IC50 [1] | IC50 [2] |
| --- | --- | --- |
| C[C@@H]1C[C@@]2(CCN1S(=O)(=O)c1ccn(C)n1)C1=C(N=NC1)NC1=C2C(=O)CC(C)(C)C1 [US20250313563, Compound 917160] | 100 to 1000 nM | 100 to 1000 nM |
| C[C@@H]1C[C@]2(CCN1S(=O)(=O)c1ccn(C)n1)C1=C(N=NC1)NC1=C2C(=O)CC(C)(C)C1 [US20250313563, Compound 917161] | < 100 nM | < 100 nM |
| CCC1(c2cccc(C(F)(F)F)c2)C2=C(N=NC2)NC2=C1C(=O)N(Cc1ccccc1)C2C (stereo unspecified) [US20250313563, Compound 917162] | 100 to 1000 nM | < 100 nM |
| CC[C@]1(c2cccc(N3CCCC[C@H]3C)c2)C2=CN=NC2NC2=C1C(=O)CC(C)(C)C2 (stereo partly specified) [US20250313563, Compound 917209] | 100 to 1000 nM | < 100 nM |
| CC[C@@]1(c2cccc(N3CCCC[C@H]3C)c2)C2=CN=NC2NC2=C1C(=O)CC(C)(C)C2 (stereo partly specified) [US20250313563, Compound 917210] | > 5000 nM | > 5000 nM |
| CCC1(c2cccc(C(F)(F)F)c2)C2=CN=NC2NC2=C1C(=O)N(c1ccccc1)CC2 (stereo unspecified) [US20250313563, Compound 917211] | 100 to 1000 nM | < 100 nM |
| CCC1(c2cccc(Oc3cncnc3)c2)C2=CN=NC2NC2=C1C(=O)CC(C)(C)C2 (stereo unspecified) [US20250313563, Compound 917212] | 100 to 1000 nM | < 100 nM |
| CC1(C)CC(=O)C2=C(C1)NC1=C(CN=N1)C21Cc2ccccc21 (stereo unspecified) [US20250313563, Compound 917226] | 100 to 1000 nM | 100 to 1000 nM |
| CC1(C)CC(=O)C2=C(C1)NC1=C(CN=N1)C21COC2(CN(C(=O)c3ccccc3)C2)C1 (stereo unspecified) [US20250313563, Compound 917231] | < 100 nM | < 100 nM |
| CC1(C)CC(=O)C2=C(C1)NC1=C(CN=N1)C21COC2(CN(C(=O)C3CCCC3)C2)C1 (stereo unspecified) [US20250313563, Compound 917232] | < 100 nM | < 100 nM |
| CC[C@]1(c2cccc(C(F)(F)F)c2)C2=CN=NC2NC2=C1C(=O)N(C)CC2 (stereo partly specified) [US20250313563, Compound 917282] | 100 to 1000 nM | < 100 nM |
| CC[C@@]1(c2cccc(C(F)(F)F)c2)C2=CN=NC2NC2=C1C(=O)N(C)CC2 (stereo partly specified) [US20250313563, Compound 917283] | > 5000 nM | > 5000 nM |
| CCC1(c2cccc(C(F)(F)F)c2)C2=CN=NC2NC2=C1C(=O)NC(c1ccccc1)C2 (stereo unspecified) [US20250313563, Compound 917284] | 1000 to 5000 nM | 100 to 1000 nM |
| CC[C@@]1(c2cccc(-c3ccnc(C)c3)c2)C2=C(CC(C)(C)CC2=O)NC2N=NC(C(F)(F)F)=C21 (stereo partly specified) [US20250313563, Compound 917289] | 1000 to 5000 nM | 100 to 1000 nM |
| CC[C@]1(c2cccc(-c3ccnc(C)c3)c2)C2=C(CC(C)(C)CC2=O)NC2N=NC(C(F)(F)F)=C21 (stereo partly specified) [US20250313563, Compound 917291] | < 100 nM and 100 to 1000 nM | < 100 nM |
| CC[C@@]1(c2cccc(-c3ccncc3)c2)C2=C(CC(C)(C)CC2=O)NC2N=NC(C(F)(F)F)=C21 (stereo partly specified) [US20250313563, Compound 917292] | 100 to 1000 nM | 100 to 1000 nM |
| CC[C@]1(c2cccc(-c3ccncc3)c2)C2=C(CC(C)(C)CC2=O)NC2N=NC(C(F)(F)F)=C21 (stereo partly specified) [US20250313563, Compound 917293] | < 100 nM | < 100 nM |
| CCC1(c2cccc(C(F)(F)F)c2)C2=C(N=NC2)NC2=C1C(=O)N(C)C2 (stereo unspecified) [US20250313563, Compound 917294] | 1000 to 5000 nM | 100 to 1000 nM |
| CCC1(c2cccc(C(F)(F)F)c2)C2=C(N=NC2)NC2=C1C(=O)NC2C (stereo unspecified) [US20250313563, Compound 917295] | 1000 to 5000 nM | 100 to 1000 nM |
| CC[C@]1(c2cccc(C(F)(F)F)c2)C2=C(N=NC2)NC2=C1C(=O)N(C)C2(C)C [US20250313563, Compound 918251] | > 5000 nM | > 5000 nM |
| CC[C@@]1(c2cccc(C(F)(F)F)c2)C2=C(N=NC2)NC2=C1C(=O)N(C)C2(C)C [US20250313563, Compound 918252] | 100 to 1000 nM | < 100 nM |
| COC(=O)C1CCC2(CC1)C1=C(N=NC1)NC1=C2C(=O)CC(C)(C)C1 (stereo unspecified) [US20250313563, Compound 918270] | 100 to 1000 nM | 100 to 1000 nM |
| CCC1(c2cccc(S(=O)(=O)CCOC)c2)C2=CN=NC2NC2=C1C(=O)CC(C)(C)C2 (stereo unspecified) [US20250313563, Compound 918271] | < 100 nM | < 100 nM |
| CCC1(c2cccc(N(C)c3ccc(C)nc3)c2)C2=CN=NC2NC2=C1C(=O)CC(C)(C)C2 (stereo unspecified) [US20250313563, Compound 918272] | 100 to 1000 nM | 100 to 1000 nM |
| CCC1(c2cccc(S(=O)(=O)C3CCCCC3)c2)C2=CN=NC2NC2=C1C(=O)CC(C)(C)C2 (stereo unspecified) [US20250313563, Compound 918273] | < 100 nM | < 100 nM |
| CCC1(c2cccc(N(C)c3cccc(F)n3)c2)C2=CN=NC2NC2=C1C(=O)CC(C)(C)C2 (stereo unspecified) [US20250313563, Compound 918274] | 100 to 1000 nM | < 100 nM |
